Laboratory results from patent US20100130554A1, “USE OF 4-CYCLOPROPYLMETHOXY-N-(3,5-DICHLORO-1-OXIDOPYRIDIN-4-YL)-5-(METHOXY)PYRIDINE-2-CARBOXAMIDE FOR THE TREATMENT OF MOTOR DISORDERS RELATED TO PARKINSON'S DISEASE” (SANOFI-AVENTIS, priority 2007, published 2010).

Experiments:
[1] = test system: dopamine uptake sites; test: Protection in a model of Parkinson's disease: dopaminergic neuron loss in mice poisoned with MPTP, striatal dopamine uptake sites quantified by GBR12935 binding; assay type: in vivo; conditions: MPTP-poisoned C57BL6 mice, striatum, gavage twice a day for 17 days, MPTP only = 58%, p<0.01 vs MPTP only
Experimental: The effects of the 4-cyclopropylmethoxy-N-(3,5-dichloro-1-oxidopyridin-4-yl)-5-(methoxy)pyridine-2-carboxamide used according to the invention were evaluated in mice using a model of dopaminergic neuron loss.
Protection in a Model of Parkinson's disease (Dopaminergic Neuron Loss in Mice Poisoned with MPTP (1-methyl-4-phenyl-1,2,3,6-tetrahydropyridine):
C57BL6 mice are given 4 intraperitoneal injections of 20 mg/kg of MPTP, each 2 hours apart. The 4-cyclopropylmethoxy-N-(3,5-dichloro-1-oxidopyridin-4-yl)-5-(methoxy)pyridine-2-carboxamide in solution in the carrier (methylcellulose (MC) (0.6%)+Tween-80 (0.5%)) is administered by gavage between the 2nd and 3rd injection of MPTP and just after the final injection of MPTP, and then twice a day for 17 days at the total daily doses of 0.015 and 0.050 mg/kg. Twenty-four hours after the final treatment, the striatum is removed and the dopamine uptake sites are quantified using a GBR12935 (1-[2-(diphenylmethoxy)ethyl]-4-(3-phenylpropyl)piperazine) binding method.

[2] = test system: ferrets; test: Evaluation of the emetic effects in ferrets after oral gavage; assay type: in vivo; conditions: observed up to 6 hours
Experimental: The emetic capacity of 4-cyclopropylmethoxy-N-(3,5-dichloro-1-oxidopyridin-4-yl)-5-(methoxy)pyridine-2-carboxamide was evaluated in ferrets. Two groups of ferrets were used, the first being given the carrier (PEG200) and the second being given the 4-cyclopropylmethoxy-N-(3,5-dichloro-1-oxidopyridin-4-yl)-5-(methoxy)pyridine-2-carboxamide in solution in the carrier (PEG 200), by oral gavage. The animals were observed continually for 2 hours following administration, and then every hour until 6 hours after administration. The clinical signs (in particular, retching and vomiting) were noted.
The emetic capacity of (R)-(−)-rolipram was evaluated in the ferrets. Two groups of ferrets were used, the first being given the carrier (PEG200) and the second being given the […] in solution in the carrier (PEG 200), by oral gavage, at doses of 0.05 mg/kg and of 0.1 mg/kg. The animals were observed continually for the 2 hours following administration, and then once an hour up to 6 hours after the administration. The clinical signs were noted.

[3] = cited from earlier work
[4] = oral gavage in PEG200, 0.1 mg/kg

SMILES	density of the dopamine uptake sites, % of the level observed in the normal animals ([1]; total daily dose 0.015 mg/kg/d) [%]	density of the dopamine uptake sites, % of the level observed in the normal animals ([1]; total daily dose 0.050 mg/kg/d) [%]	emetic effects (retching and vomiting) [2, 4]	emetic effects (retching and vomiting) ([2]; oral gavage in PEG200, 0.05 mg/kg)	emetic effects in clinical studies [3]
COc1cnc(C(=O)Nc2c(Cl)c[n+]([O-])cc2Cl)cc1OCC1CC1 [4-cyclopropylmethoxy-N-(3,5-dichloro-1-oxidopyridin-4-yl)-5-(methoxy)pyridine-2-carboxamide]	82	85	neither retching nor vomiting	–	–
COc1ccc([C@@H]2CNC(=O)C2)cc1OC1CCCC1 [(R)-(−)-rolipram, (4R)-4-[3-(cyclopentyloxy)-4-methoxyphenyl]pyrrolidine-2-one]	–	–	induce vomiting	induce vomiting	–
COc1ccc(C2CNC(=O)C2)cc1OC1CCCC1 (stereo not drawn) [rolipram]	–	–	–	–	induce emetic effects
